Holding throughout (test): NCI60 one-dose screen
What all share (assay type): cell-based

One experiment has as its system 786-0. The settings on record: Homo sapiens; 786-0, 10 μM; read-out: Growth percent. On the procedure:
(§1) The screening results are presented in the Supplementary Materials (Table S1), where the cytotoxicity was determined for the 10 µM concentration. […] The negative numbers indicate significant decreases in the cell number. […] Compared to the reference chrysin (2), all phosphonium hybrids (3a–h) had significant antiproliferative activities. […] At the same time, it should be noted that more than 60% average reduction was also obtained in the case of the other examined conjugates (3a–h).
(§2) A detailed description of the NCI screening procedures, including the one-dose and five-dose tests, can be found in the Supplementary Materials, on the website of NCI [39], and in our previous work.
(§3) A detailed description of the NCI screening procedures can also be found on the website of NCI [39], and in our […]
(§4) All candidates were examined at first at a single high dose (10 μM) in the full NCI60 cell panel. The value reported for the one-dose test is growth relative to the no-drug control and relative to the time zero number of cells. This made possible the disclosure of both growth inhibition (numbers between 0 and 100) and lethality (numbers less than 0). For example, a value of 100 means no growth inhibition. A value of 20 would mean 80% growth inhibition. A value of 0 means no net growth over the course of the analysis. A value of −20 would mean 20% lethality. A value of −100 means all cells are dead. […]
(§5) concentration levels. The human tumor cell lines of the cancer screening panel were grown in RPMI 1640 medium containing 5% fetal bovine serum and 2 mM l-glutamine. Characteristically, cells were injected in 96-well microtiter plates in 0.1 mL at plating densities ranging from 5000 to 40,000 cells/well, depending on the doubling time of individual cell lines. After cell inoculation, the microtiter plates were incubated at 37 °C, 5% carbon dioxide, 95% air, and 100% relative humidity for 24 hours before the addition of tested compounds. After 24 hours, 2 plates of each cell line were fixed in situ with Cl3COOH (TCA), to represent a measurement of the cell population for each cell line at the time of drug addition (tz). Tested compounds were solubilized in DMSO at 400-fold the desired final maximum test concentration and stored frozen before application. In the course of the drug addition, an aliquot of frozen concentrate was thawed and diluted to twice the desired final maximum test concentration with a complete medium containing 50 μg mL−1 gentamicin. Additional four, 10-fold or ½ log serial dilutions were produced to furnish a total of five drug concentrations plus control. Aliquots of 0.1 mL of these different drug dilutions were added to the appropriate microtiter wells already containing 0.1 mL of medium, resulting in the required final drug concentrations.
(§6) Following drug addition, the plates were incubated at 37 °C, 5% carbon dioxide, 95% air, and 100% relative humidity for an additional 48 hours. For adherent cells, the test was finished by the addition of cold Cl3COOH. Cells were fixed in situ by the addition of 50 μL of cold 50% (w/v) Cl3COOH, and incubated at 4 °C for 1 hour. The supernatant was discarded, and the plates were washed with H2O (5×) and dried in air. Sulforhodamine B (SRB) solution (0.1 mL) at 0.4% (w/v) in 1% CH3COOH was added to each well, and plates were incubated at RT for 10 min. After staining, the unbound dye was removed by washing five times with 1% CH3COOH, and the plates were dried in the air. The bound stain is afterward solubilized with a 10 mM trizma base, and the absorbance is read on an automated plate reader at λ = 515 nm. Utilizing the seven absorbance measurements [time zero (tz), control growth (c), and test growth in the presence of the drug at the five concentration levels (ti)], the percentage growth was determined at each of the drug concentration levels. Growth inhibition (%) was calculated as:
(§7) [(ti − tz)/(c − tz)] × 100, for concentrations where ti ≥ tz (1) […]

The test system of a further experiment is A549/ATCC. The following applies: Homo sapiens, read-out: Growth percent. On the procedure: as §1, §2, §3, §4, §5, §6, §7
The next experiment deals with BT-549. The following applies: Homo sapiens; BT-549, 10 μM; read-out: Growth percent. On the procedure:
as §1, §2, §3, §4, §5, §6, §7

The next experiment deals with CAKI-1. The following applies: Homo sapiens; CAKI-1, 10 μM; read-out: Growth percent. On the procedure:
as §1, §2, §3, §4, §5, §6, §7

The next experiment has as its system EKVX. The following applies: Homo sapiens, read-out: Growth percent. On the procedure:
as §1, §2, §3, §4, §5, §6, §7

Another experiment deals with HCC-2998. The settings on record: Homo sapiens; HCC-2998, 10 μM; read-out: Growth percent. On the procedure:
as §1, §2, §3, §4, §5, §6, §7

Another experiment concerns HCT-15. The settings on record: Homo sapiens; HCT-15, 10 μM; read-out: Growth percent. On the procedure:
as §1, §2, §3, §4, §5, §6, §7

In the next experiment the test system is HS 578T. The following applies: Homo sapiens, read-out: Growth percent. On the procedure: as §1, §2, §3, §4, §5, §6, §7
A further experiment deals with HT29. The following applies: Homo sapiens, HT-29; HT29, 10 μM; read-out: Growth percent. On the procedure:
as §1, §2, §3, §4, §5, §6, §7

The test system of the next experiment is IGROV1. The settings on record: Homo sapiens, IGROV-1; IGROV1, 10 μM; read-out: Growth percent. On the procedure: as §1, §2, §3, §4, §5, §6, §7
In the next experiment the test system is LOX IMVI. The following applies: Homo sapiens, read-out: Growth percent. On the procedure: as §1, §2, §3, §4, §5, §6, §7
For the next experiment, the system named is MALME-3M. The settings on record: Homo sapiens, read-out: Growth percent. On the procedure: as §1, §2, §3, §4, §5, §6, §7
The next experiment concerns MCF7. The following applies: Homo sapiens; MCF7, 10 μM; read-out: Growth percent. On the procedure: as §1, §2, §3, §4, §5, §6, §7
Another experiment deals with MDA-MB-435. The following applies: Homo sapiens; MDA-MB-435, 10 μM; read-out: Growth percent. On the procedure: as §1, §2, §3, §4, §5, §6, §7
In a further experiment the test system is MDA-MB-468. The following applies: Homo sapiens; MDA-MB-468, 10 μM; read-out: Growth percent. On the procedure:
as §1, §2, §3, §4, §5, §6, §7

The next experiment deals with NCI-H522. The following applies: Homo sapiens; NCI-H522, 10 μM; read-out: Growth percent. On the procedure:
as §1, §2, §3, §4, §5, §6, §7

The subject of the next experiment is SF-539. The following applies: Homo sapiens; SF-539, 10 μM; read-out: Growth percent. On the procedure:
as §1, §2, §3, §4, §5, §6, §7

The test system of the next experiment is SW-620. The following applies: Homo sapiens; SW-620, 10 μM; read-out: Growth percent. On the procedure: as §1, §2, §3, §4, §5, §6, §7
The test system of a further experiment is TK-10. The settings on record: Homo sapiens; TK-10, 10 μM; read-out: Growth percent. On the procedure: as §1, §2, §3, §4, §5, §6, §7
For a further experiment, the system named is U251. The following applies: Homo sapiens, U-251; U251, 10 μM; read-out: Growth percent. On the procedure:
as §1, §2, §3, §4, §5, §6, §7

The next experiment relates to UACC-257. The settings on record: Homo sapiens; UACC-257, 10 μM; read-out: Growth percent. On the procedure: as §1, §2, §3, §4, §5, §6, §7

Molecules are shown by their SMILES.

Results on four compounds are retold here after publication PMC12652692, “Synthesis and In Vitro Anticancer Evaluation of Novel Phosphonium Derivatives of Chrysin” (International Journal of Molecular Sciences, 2025).

Turning to `COc1c(C)cc([P+](CCCCOc2cc(O)c3c(=O)cc(-c4ccccc4)oc3c2)(c2cc(C)c(OC)c(C)c2)c2cc(C)c(OC)c(C)c2)cc1C` [3f], the activity at 10 µM was -47% in the experiment on 786-0; -66.1% with A549/ATCC; -53.4% with BT-549; -51.6% in the experiment with CAKI-1; -76.5% in the experiment with EKVX; -73.5% with HCC-2998. The activity at 10 µM in the experiment on HCT-15 is -58.9%; in the experiment with HS 578T, -57.7%; in the experiment with HT29, -72.7%; in the experiment on IGROV1, -38%; in the experiment with LOX IMVI, -68.7%; in the experiment on MALME-3M, -42.5%. In addition, the activity at 10 µM was -58% in the experiment on MCF7; -81.9% in the experiment on MDA-MB-435; -76% in the experiment with MDA-MB-468; -77.3% in the experiment with NCI-H522; -89.2% in the experiment on SF-539; -62.4% in the experiment with SW-620. In addition, the activity at 10 µM in the experiment on TK-10 was -84.7%; in the experiment with U251 it was -76.6%; with UACC-257, -79.7%.
For `Cc1ccccc1[P+](CCCCOc1cc(O)c2c(=O)cc(-c3ccccc3)oc2c1)(c1ccccc1C)c1ccccc1C` [3g], the activity at 10 µM was -98.1% with 786-0; -94.1% in the experiment with A549/ATCC; -98.1% with BT-549; -97.2% in the experiment on CAKI-1; -98.4% in the experiment on EKVX; -98.2% in the experiment on HCC-2998. The activity at 10 µM is -94.7% in the experiment with HCT-15; -98.3% in the experiment on HS 578T; -97.9% with HT29; -99.1% in the experiment on IGROV1; -97.5% with LOX IMVI; -98.5% with MALME-3M. The activity at 10 µM was -95.4% with MCF7; -98.3% in the experiment with MDA-MB-435; -99.4% in the experiment with MDA-MB-468; -98.5% in the experiment on NCI-H522; -97.7% in the experiment on SF-539; -96.4% in the experiment with SW-620. Besides, the activity at 10 µM with TK-10 was -99.3%; with U251, -97%; in the experiment with UACC-257, -99.3%.
For `O=c1cc(-c2ccccc2)oc2cc(OCCCC[P+](c3ccccc3)(c3ccccc3)c3ccccn3)cc(O)c12` [3h], the activity at 10 µM with 786-0 was -74.5%; with A549/ATCC, -43.5%; with BT-549 it was -69.7%; in the experiment with CAKI-1, -71.2%; with EKVX it was -93.1%; in the experiment on HCC-2998, -88.5%. For the same compound, the activity at 10 µM was -88% in the experiment with HCT-15; -35.8% in the experiment on HS 578T; -60.6% with HT29; -80.1% in the experiment with IGROV1; -84.1% in the experiment with LOX IMVI; -93.4% with MALME-3M. The activity at 10 µM was -62.6% in the experiment on MCF7; -80.8% in the experiment on MDA-MB-435; -90.7% with MDA-MB-468; -72.3% with NCI-H522; -96.5% with SF-539; -88.3% in the experiment on SW-620. For the same compound, the activity at 10 µM in the experiment with TK-10 was -93.3%; in the experiment on U251 it was -96%; with UACC-257, -89.8%.
Regarding `O=c1cc(-c2ccccc2)oc2cc(O)cc(O)c12` [compound 2, 5,7-dihydroxyflavone, reference compound], the activity at 10 µM in the experiment on 786-0 came out at 99.2%; in the experiment on A549/ATCC it was 98.5%; in the experiment on BT-549 it was 91%; in the experiment on CAKI-1, 83.6%; with EKVX it was 89.3%; in the experiment on HCC-2998, 103%. Moreover, the activity at 10 µM in the experiment with HCT-15 was 81%; in the experiment with HS 578T, 92.5%; in the experiment on HT29, 103%; with IGROV1, 95.2%; in the experiment on LOX IMVI, 85.1%; in the experiment with MALME-3M it was 102%. The activity at 10 µM with MCF7 came out at 103%; in the experiment with MDA-MB-435 it was 99.5%; in the experiment with MDA-MB-468, 91.1%; with NCI-H522 it was 89%; in the experiment with SF-539, 92.2%; in the experiment with SW-620, 102%. For the same compound, the activity at 10 µM came to 107% in the experiment with TK-10, 80.7% in the experiment on U251 and 119% with UACC-257.
